Laboratory results from patent publication US9913843B2, “Protein kinase C inhibitors and uses thereof” (Rigel Pharmaceuticals, Inc., priority 2012, dated 2018).
Where two headings read alike, the source gives them in different places.

Tested on: PKC mediated IL-2 production in human primary T cells
Test: IL-2 ELISA, human primary T cell, anti CD3+CD28+ (whole cell functional assay for PKC mediated IL-2 production)
Type: cell-based
Description: Human primary T cells were prepared as follows. Fresh PBMC's from All Cells (Cat # PB002) were re-suspended in RPMI (RPMI-1640 with L-Glutamine; Mediatech, Inc., Herndon Va., cat. #10-040-CM) with 10% FBS and seeded into flasks and incubated at 37° C. for 2 hours to allow the monocytes to adhere. The non-adherent cells were then centrifuged and re-suspended in RPMI medium containing 40 U/ml IL2 and seeded into a flask pre-coated with 1 μg/ml aCD3 and 5 ug/ml aCD28 (Anti-Human CD3, BD Pharmingen Catalog #555336, Anti-Human CD28, Beckman Coulter Catalog #IM1376). The cells were stimulated for 3-4 days, then transferred to a fresh flask and maintained in RPMI (RPMI-1640 with L-Glutamine; Mediatech, Inc., Herndon Va., cat. #10-040-CM) with 10% FBS and 40 U/ml IL-2.
Human primary T cells (100,000 cells per well) were pre-incubated with or without test compound in RPMI-1640 with L-Glutamine and 10% FBS for 1 hour at 37° C. Cells were then stimulated by transferring them to round-bottom 96-well plates pre-coated with 1 μg/ml aCD3 and 5 μg/ml aCD28. For counter assay, cells were instead stimulated by adding 8× stock solutions of PMA and ionomycin in RPMI-1640 with L-Glutamine and 10% FBS (for final concentrations of 0.5 ng/ml PMA and 0.1 μM ionomycin, both from Calbiochem). Cells were incubated at 37° C. for 24 hours before 100 μL supernatants were harvested for quantification of IL-2 by ELISA using Human IL-2 Duoset ELISA Kit from R and D Systems, Cat. # DY202E.
Compounds 1-156 were tested in a whole cell functional assay for PKC mediated IL-2 production as follows. Human primary T cell isolation and culture: Human primary T cells were prepared as follows. Whole blood was obtained from a healthy volunteer, mixed 1:1 with PBS, layered on to Ficoll Hypaque (Amersham Pharmacia Biotech, Piscataway, N.J., Catalog #17-1440-03) in 2:1 blood/PBS:ficoll ratio and centrifuged for 30 minutes at 4° C. at 1750 rpm. The cells at the serum: ficoll interface were recovered and washed twice with 5 volumes of PBS. These freshly isolated human peripheral blood mononuclear cells were cultured in Yssel's medium containing 40 U/ml IL2 in a flask pre-coated with 1 μg/ml aCD3 and 5 μg/ml aCD28 (Anti-Human CD3, BD Pharmingen Catalog #555336, Anti-Human CD28, Beckman Coulter Catalog #IM1376). The cells were stimulated for 3-4 days, then transferred to a fresh flask and maintained in RPMI (RPMI-1640 with L-Glutamine; Mediatech, Inc., Herndon Va., cat. #10-040-CM) with 10% FBS and 40 U/ml IL-2. The primary T-cells were then washed twice with PBS to remove the IL-2.
Primary T cell stimulation and IL2 ELISA: Human primary T cells (100,000 cells per well) were pre-incubated with or without test compound in Yssel's medium for 1 hour at 37° C. Cells were then stimulated by transferring them to round-bottom 96-well plates pre-coated with 1 μg/ml aCD3 and 5 μg/ml αCD28. For counter assay, cells were instead stimulated by adding 8× stock solutions of PMA and ionomycin in Yssels (for final concentrations of 0.5 ng/ml PMA and 0.1 uM ionomycin, both from Calbiochem). Cells were incubated at 37° C. for 24 hours before 100 μL supernatants were harvested for quantification of IL-2 by ELISA using Human IL-2 Duoset ELISA Kit from R and D Systems, Cat. # DY202E.

[1] = 24 h, human primary T cells stimulated with anti-CD3 + anti-CD28, IL-2 by ELISA, read-out: IC50 for blocking IL-2 production
[2] = human primary T cells stimulated with anti-CD3 + anti-CD28, 24 h, IL-2 by ELISA, 8 pt, read-out: IL2 ELISA, Human primary T cell, anti-CD3 + CD28, 8 pt (IC50)

Compound	IC50 [1] [µM]	IC50 [2] [µM]
CC1(C)Oc2cc(Nc3ncc(F)c(NC[C@@H]4CCCN5CCCC[C@H]45)n3)cnc2N(CC2CC2)C1=O [Compound 31, 7-(4-(((1S,9aR)-octahydro-1H-quinolizin-1-yl)methylamino)-5-fluoropyrimidin-2-ylamino)-4-(cyclopropylmethyl)-2,2-dimethyl-2H-pyrido[3,2-b][1,4]oxazin-3(4H)-one]	< 30	0.359
Fc1cc(C2CC2)c(-n2cnnn2)cc1Nc1ncc(Cl)c(NC[C@@H]2CCCN3CCCC[C@H]23)n1 [Compound 32, 5-chloro-N2-(4-cyclopropyl-2-fluoro-5-(1H-tetrazol-1-yl)phenyl)-N4-(((1S,9aR)-octahydro-1H-quinolizin-1-yl)methyl)pyrimidine-2,4-diamine]	< 30	0.159
Cc1ccc(Nc2ncc(Cl)c(NC[C@@H]3CCCN4CCCC[C@H]34)n2)cc1-n1cnnn1 [Compound 33, 5-chloro-N4-(((1S,9aR)-octahydro-1H-quinolizin-1-yl)methyl)-N2-(4-methyl-3-(1H-tetrazol-1-yl)phenyl)pyrimidine-2,4-diamine]	< 30	0.117
Cn1nnn(-c2cc(Nc3ncc(Cl)c(NC[C@@H]4CCCN5CCCC[C@H]45)n3)c(F)cc2C2CC2)c1=O [Compound 34, 1-(5-(4-(((1S,9aR)-octahydro-1H-quinolizin-1-yl)methylamino)-5-chloropyrimidin-2-ylamino)-2-cyclopropyl-4-fluorophenyl)-4-methyl-1H-tetrazol-5(4H)-one]	< 30	0.67
Cc1nnnn1-c1cc(Nc2ncc(Cl)c(NC[C@@H]3CCCN4CCCC[C@H]34)n2)ccc1F [Compound 35, 5-chloro-N2-(4-fluoro-3-(5-methyl-1H-tetrazol-1-yl)phenyl)-N4-(((1S,9aR)-octahydro-1H-quinolizin-1-yl)methyl)pyrimidine-2,4-diamine]	< 30	0.0542
Cc1nnnn1-c1ccc(F)c(Nc2ncc(Cl)c(NC[C@@H]3CCCN4CCCC[C@H]34)n2)c1 [Compound 36, 5-chloro-N2-(2-fluoro-5-(5-methyl-1H-tetrazol-1-yl)phenyl)-N4-(((1S,9aR)-octahydro-1H-quinolizin-1-yl)methyl)pyrimidine-2,4-diamine]	< 30	0.112
COc1ccc(Nc2ncc(Cl)c(NC[C@@H]3CCCN4CCCC[C@H]34)n2)cc1-n1nnnc1C [Compound 37, 5-chloro-N4-(((1S,9aR)-octahydro-1H-quinolizin-1-yl)methyl)-N2-(4-methoxy-3-(5-methyl-1H-tetrazol-1-yl)phenyl)pyrimidine-2,4-diamine]	< 30	0.0872
COc1cc(Nc2ncc(Cl)c(NC[C@@H]3CCCN4CCCC[C@H]34)n2)cc(-n2nnnc2C)c1 [Compound 38, 5-chloro-N4-(((1S,9aR)-octahydro-1H-quinolizin-1-yl)methyl)-N2-(3-methoxy-5-(5-methyl-1H-tetrazol-1-yl)phenyl)pyrimidine-2,4-diamine]	< 30	0.126
N#Cc1cccc(Nc2ncc(Cl)c(NC[C@@H]3CCCN4CCCC[C@H]34)n2)c1 [Compound 39, 3-(4-(((1S,9aR)-octahydro-1H-quinolizin-1-yl)methylamino)-5-chloropyrimidin-2-ylamino)benzonitrile]	< 30	0.418
Cc1ccc(Nc2ncc(Cl)c(NC[C@@H]3CCCN4CCCC[C@H]34)n2)cc1C#N [Compound 40, 5-(4-(((1S,9aR)-octahydro-1H-quinolizin-1-yl)methylamino)-5-chloropyrimidin-2-ylamino)-2-methylbenzonitrile]	< 30	0.267
N#Cc1cc(Nc2ncc(Cl)c(NC[C@@H]3CCCN4CCCC[C@H]34)n2)ccc1C1CC1 [Compound 41, 5-(4-(((1S,9aR)-octahydro-1H-quinolizin-1-yl)methylamino)-5-chloropyrimidin-2-ylamino)-2-cyclopropylbenzonitrile]	< 30	0.0723

Now from value to molecule:

IC50 [1] [µM]	IC50 [2] [µM]	Compound
< 30	0.697	COc1ccc(Nc2ncc(F)c(NC[C@@H]3CCCN4CCCC[C@H]34)n2)cc1-c1cnco1 [Compound 22, 5-fluoro-N4-(((1S,9aR)-octahydro-1H-quinolizin-1-yl)methyl)-N2-(4-methoxy-3-(oxazol-5-yl)phenyl)pyrimidine-2,4-diamine]
< 30	0.0663	Cc1nnnn1-c1cc(Nc2ncc(F)c(NC[C@@H]3CCCN4CCCC[C@H]34)n2)c(F)cc1C1CC1 [Compound 23, N2-(4-cyclopropyl-2-fluoro-5-(5-methyl-1H-tetrazol-1-yl)phenyl)-5-fluoro-N4-(((1S,9aR)-octahydro-1H-quinolizin-1-yl)methyl)pyrimidine-2,4-diamine]
< 30	3.45	O=S1(=O)CCCN1c1cc(Nc2ncc(F)c(NC[C@@H]3CCCN4CCCC[C@H]34)n2)ccc1F [Compound 24, N2-[3-(1,1-dioxo-isothiazolidin-2-yl)-4-fluoro-phenyl]-5-fluoro-N4-(((1S,9aR)-octahydro-1H-quinolizin-1-yl)methyl)-pyrimidine-2,4-diamine]
< 30	0.853	CC1(C)Oc2cc(Nc3ncc(F)c(NC[C@@H]4CCCN5CCCC[C@H]45)n3)ccc2N(CCCF)C1=O [Compound 25, 7-(4-(((1S,9aR)-octahydro-1H-quinolizin-1-yl)methylamino)-5-fluoropyrimidin-2-ylamino)-4-(3-fluoropropyl)-2,2-dimethyl-2H-benzo[b][1,4]oxazin-3(4H)-one]
< 30	0.169	O=C1COc2cc(Nc3ncc(F)c(NC[C@@H]4CCCN5CCCC[C@H]45)n3)ccc2N1CC1CC1 [Compound 26, 7-(4-(((1S,9aR)-octahydro-1H-quinolizin-1-yl)methylamino)-5-fluoropyrimidin-2-ylamino)-4-(cyclopropylmethyl)-2H-benzo[b][1,4]oxazin-3(4H)-one]
< 30	0.652	CCN1C(=O)C(F)(F)Oc2cc(Nc3ncc(F)c(NC[C@@H]4CCCN5CCCC[C@H]45)n3)cnc21 [Compound 27, 7-(4-(((1S,9aR)-octahydro-1H-quinolizin-1-yl)methylamino)-5-fluoropyrimidin-2-ylamino)-4-ethyl-2,2-difluoro-2H-pyrido[3,2-b][1,4]oxazin-3(4H)-one]
< 30	1.81	Cn1nnnc1Oc1cc(Nc2ncc(F)c(NC[C@@H]3CCCN4CCCC[C@H]34)n2)c(F)cc1C1CC1 [Compound 28, N2-(5-(1-methyl-1H-tetrazol-5-yloxy)-4-cyclopropyl-2-fluorophenyl)-5-fluoro-N4-(((1S,9aR)-octahydro-1H-quinolizin-1-yl)methyl)pyrimidine-2,4-diamine]
< 30	1.8	Fc1ccc(S(F)(F)(F)(F)F)cc1Nc1ncc(F)c(NC[C@@H]2CCCN3CCCC[C@H]23)n1 [Compound 29, 5-fluoro-N2-(3-pentafluorosulfanyl-6-fluoro-phenyl)-N4-(((1S,9aR)-octahydro-1H-quinolizin-1-yl)methyl)pyrimidine-2,4-diamine]
< 30	0.672	Fc1cc(Nc2ncc(F)c(NC[C@@H]3CCCN4CCCC[C@H]34)n2)cc(S(F)(F)(F)(F)F)c1 [Compound 30, 5-fluoro-N2-(3-pentafluorosulfanyl-5-fluoro-phenyl)-N4-(((1S,9aR)-octahydro-1H-quinolizin-1-yl)methyl)pyrimidine-2,4-diamine]
